Patent US20130196949A1, “Hydroxyalkyl starch in combination with cytostatica for the treatment of cancers by reduction of tumor growth rates” (Fresenius Kabi Deutschland GmbH, priority 2012, published 2013)
Read-outs that look alike come from different tables or passages of the source.

Assays:
[1] = tested on: LXFE 397/26N17 (Non-Small Cell Lung Cancer, squamous cell carcinoma) xenograft
[2] = LXFE 397 study, FIG. 2
[3] = Relative body weight of mice bearing RXF 1220 tumors; format: in vivo; details: RXF 1220 study, FIG. 6
[4] = tested on: RXF 1220 (renal cancer, hypernephroma) xenograft; details: day 27; Sunitinib 40 mg/kg p.o., Voluven 10% 20 ml/kg i.v. 1 hour prior; days 0-11
[5] = tested on: HNXF 1842 (Head and Neck Cancer, squamous cell carcinoma) xenograft; experiment: Tumor growth of HNXF 1842 human tumor xenograft in NMRI nu/nu mice; format: in vivo
[6] = Relative body weight of mice bearing HNXF 1842 tumors; format: in vivo; details: HNXF 1842 study, FIG. 4

In the case of `CCCCCOC(=O)Nc1nc(=O)n([C@@H]2O[C@H](C)[C@@H](O)[C@H]2O)cc1F` [Capecitabine], the “median relative tumor volume increase compared to day 0” value (“median relative tumor volume increase” for short) ([1]; day 14, Capecitabine 100 mg/kg p.o., Voluven 10% 20 ml/kg i.v. 1 hour prior, days 0, 4, 7, 11, 14, 18) was “approx. 15.2 fold”, the “inhibitory effect on tumor growth (in words)” value ([1]; over 14 days, combination compared with reference drug alone) was “moderately inhibited the tumor growth” and the “relative median body weight over time (in words)” value (from here on “relative median body weight”) [2] was “did not increase the body weight as steadily as the other two”.
With `CCN(CC)CCNC(=O)c1c(C)[nH]c(/C=C2\C(=O)Nc3ccc(F)cc32)c1C` [Sunitinib] the “relative median body weight” value [3] was “increased slightly over time” and the “median relative tumor volume increase” value [4] was “approx. 8.5 fold”.
In the case of `CC(=O)O[C@H]1C(=O)[C@@]2(C)[C@H]([C@H](OC(=O)c3ccccc3)[C@]3(O)C[C@H](OC(=O)[C@H](O)[C@@H](NC(=O)c4ccccc4)c4ccccc4)C(C)=C1C3(C)C)[C@]1(OC(C)=O)CO[C@@H]1C[C@@H]2O` [Paclitaxel], the “median relative tumor volume increase” value ([5]; day 18, Paclitaxel 10 mg/kg i.v., Voluven 10% 20 ml/kg i.v. 1 hour prior, days 0, 7, 14, 21) was “approx. 7.1 fold”, the “inhibitory effect on tumor growth (in words)” value ([5]; over 18 days, combination compared with reference drug alone) was “inhibited the tumor growth” and the “relative median body weight” value [6] was “lowest increase”.
